Results as given in patent US9133140B2, “Cycloalkylamne derivatives” (Daiichi Sankyo Company, Limited, priority 2008, dated 2015).
Where a name gives a salt, the structure may show the parent alone. Read-outs that look alike come from different tables or passages of the source.

How the values were obtained:
[1] = molecular target: T1, human CaSR (Homo sapiens, UniProt P41180); assay: Human CaSR activity measurement test (intracellular calcium in TT cells); format: cell-based; conditions: [EC50 of test compound]/[EC50 of Compound A], intracellular calcium fluorescence
T1 construct: TT cells are cell lines that express human CaSR; endogenous in cells; host or cells: TT cells (human medullary thyroid carcinoma cell line)
T1 sequence (P41180 20-1078): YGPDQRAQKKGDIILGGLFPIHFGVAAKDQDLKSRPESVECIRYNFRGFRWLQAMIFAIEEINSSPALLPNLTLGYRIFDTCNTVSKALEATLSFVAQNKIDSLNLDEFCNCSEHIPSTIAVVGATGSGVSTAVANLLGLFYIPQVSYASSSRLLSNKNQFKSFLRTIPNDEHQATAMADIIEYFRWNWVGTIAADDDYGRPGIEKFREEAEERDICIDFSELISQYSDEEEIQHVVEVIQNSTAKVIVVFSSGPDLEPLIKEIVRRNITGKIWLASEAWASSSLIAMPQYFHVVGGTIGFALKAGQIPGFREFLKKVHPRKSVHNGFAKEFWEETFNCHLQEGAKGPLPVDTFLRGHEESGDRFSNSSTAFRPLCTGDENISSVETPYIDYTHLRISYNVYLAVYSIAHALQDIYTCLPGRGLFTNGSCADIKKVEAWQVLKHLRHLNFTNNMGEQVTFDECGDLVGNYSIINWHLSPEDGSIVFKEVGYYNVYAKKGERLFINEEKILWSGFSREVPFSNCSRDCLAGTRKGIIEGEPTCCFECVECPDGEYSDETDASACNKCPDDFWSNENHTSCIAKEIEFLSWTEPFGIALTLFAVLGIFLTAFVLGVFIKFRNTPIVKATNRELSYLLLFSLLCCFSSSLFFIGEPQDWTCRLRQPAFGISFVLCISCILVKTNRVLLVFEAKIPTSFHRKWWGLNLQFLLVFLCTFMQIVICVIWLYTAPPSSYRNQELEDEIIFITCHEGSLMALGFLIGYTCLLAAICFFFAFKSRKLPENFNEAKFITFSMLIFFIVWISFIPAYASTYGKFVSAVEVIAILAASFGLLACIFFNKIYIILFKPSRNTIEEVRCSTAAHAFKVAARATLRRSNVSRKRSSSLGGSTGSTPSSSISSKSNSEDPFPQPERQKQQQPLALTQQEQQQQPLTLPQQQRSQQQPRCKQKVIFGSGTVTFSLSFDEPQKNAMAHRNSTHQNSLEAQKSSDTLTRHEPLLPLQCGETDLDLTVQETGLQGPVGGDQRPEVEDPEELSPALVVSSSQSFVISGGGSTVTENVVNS
Procedure: It is reported that human medullary thyroid carcinoma cell lines TT cells are cell lines that express human CaSR, and when CaSR is activated by extracellular calcium ions or the like, intracellular calcium ion concentration increases (Endocrinology 137: 3842-3848, 1996). Accordingly, an activating action of the test compounds with respect to human CaSR was evaluated by using the change in intracellular calcium concentration of TT cells as an indicator. TT cells were inoculated onto a black well/clear bottom 96 well plate (poly-D-lysine coat: manufactured by BD biosciences), and were cultured for approximately 24 hours in a F-12 Nutrient Mixture (Kaighn's modification) culture media containing 10% calf serum and 0.5% antibiotic antimycotic. […] Then, the plate was allowed to stand for 1 hour at 37° C. Subsequently, the above-mentioned plate was placed onto FlexStation (manufactured by Molecular Device) or FlexStation 3 (manufactured by Molecular Device), and fluorescence intensity before and after treatment with the test compound dissolved in a buffer for measurement (126 mM NaCl, 4 mM KCl, 1 mM MgCl2, 20 mM HEPES (pH 7.4), 5.6 mM glucose, 2 mM CaCl2) was measured. […] Nagano, Pharmacol. […] WO 1996/12697) as a comparative compound, by conducting a similar procedure. From the following equation, the human CaSR activity of each of the test compounds was calculated as the relative activity with respect to Compound A. Relative activity with respect to Compound A=[EC50 of test compound]/[EC50 of Compound A]

[2] = system: calcium ion concentration in the blood; assay: Measurement test for concentration of parathyroid hormone and calcium ion in rat blood; format: in vivo; conditions: read-out: reduction of calcium concentration in the blood
Procedure: Three male SD rats (manufactured by Japan SLC, Inc.) were orally administered with the test compound, and effects on the concentration of parathyroid hormone (PTH) in the blood and concentration of the calcium ion in the blood were studied.
The test compound was administered by dissolving or suspending it in a 0.5% methyl cellulose 400 (MC) solution or 0.5% MC solution containing 10% of ethanol. (In addition, Compound A used in Test Example 1 was administered as a MC suspension by dosage of 30 mg/kg, and was studied as a comparative example.) Blood was collected from the jugular vein under anesthesia with halothane or isoflurane, before administration of the test compound, and 2, 4, 6 or 8 and 24 hours after administration. Calcium ion concentration in the blood was measured using cartridge EG7+(manufactured by Fuso Chemical Co., Ltd.) and i-STAT 300F (manufactured by Fuso Chemical Co., Ltd.). In addition, plasma intact PTH concentration was measured using Rat intact PTH ELISA kit (manufactured by Immutopics).
The transition of calcium ion concentration in the blood over time from before administration to 24 hours after administration of each of the test compounds was plotted, and the decrease in calcium ion concentration in the blood from the value before administration was calculated as an area value.

[3] = male SD rats, oral, 10 mg/kg, 4 hours after administration

SMILES	Relative activity with respect to Compound A [1]	also measured
C[C@@H](NC1CC[C@@H](c2ccc(OCC(=O)O)cc2)C1)c1ccc(F)c2ccccc12 (mixture of isomers) [Example 16, {4-[(1R)-3-{[(1R)-1-(4-Fluoronaphthalen-1-yl)ethyl]amino}cyclopentyl]phenoxy}acetic acid]	0.72	inhibition in vivo at 10 mg/kg [2, 3]: ≥ 30%
C[C@@H](NCCCc1cccc(C(F)(F)F)c1)c1cccc2ccccc12 [Compound A, ((R)-1-naphthalen-1-yl-ethyl)-[3-(3-trifluoromethyl-phenyl)-propyl]-amine monohydrochloride, reference compound]		inhibition in vivo at 30 mg/kg ([2]; male SD rats, oral, 30 mg/kg, 4 hours after administration): 15 to 30%
C[C@@H](N[C@H]1CC[C@@H](c2ccc(CCC(=O)O)cc2)C1)c1cccc2ccccc12 [Example 9, 3-{4-(1R,3S)-3-{[(1R)-1-(Naphthalen-1-yl)ethyl]amino}cyclopentyl]phenyl}propanoic acid hydrochloride]	0.38	
Cc1ccc([C@@H](C)NC2CC[C@@H](c3ccc(OCC(=O)O)cc3)C2)c2ccccc12 (stereo partly drawn) [Example 22, {4-[(1R)-3-{[(1R)-1-(4-Methylnaphthalen-1-yl)ethyl]amino}cyclopentyl]phenoxy}acetic acid]	0.42	
C[C@@H](N[C@H]1CC[C@@H](c2ccc(OCC(=O)O)cc2)C1)c1ccc(F)c2cc(F)ccc12 [Example 23, {4-[(1R,3S)-3-{[(1R)-1-(4,6-Difluoronaphthalen-1-yl)ethyl]amino}cyclopentyl]phenoxy}acetic acid]		inhibition in vivo at 0.3 mg/kg ([2]; male SD rats, oral, 0.3 mg/kg, 4 hours after administration): ≥ 20%
C[C@@H](N[C@H]1CC[C@@H](c2ccc(-c3nn[nH]n3)cc2)C1)c1ccc(F)c2ccccc12 [Example 26, (1S,3R)-N-[(1R)-1-(4-Fluoronaphthalen-1-yl)ethyl]-3-[4-(2H-tetrazol-5-yl)phenyl]cyclopentanamine hydrochloride]	0.27	
C[C@@H](N[C@H]1CC[C@H](c2ccc(CCC(=O)O)cc2)C1)c1cccc2ccccc12 [Example 29, 3-{4-[(1S,3S)-3-[(1R)-1-(4-Naphthalen-1-yl)ethyl]amino}cyclopentyl]phenyl}propanoic acid hydrochloride]	0.30	
C[C@@H](N[C@H]1CC[C@@H](c2ccc(NCC(=O)O)cc2)C1)c1ccc(F)c2ccccc12 [Example 35, N-{4-[(1R,3S)-3-{[(1R)-1-(4-Fluoronaphthalen-1-yl)ethyl]amino}cyclopentyl]phenyl}glycine 0.3 hydrochloride]		inhibition in vivo at 10 mg/kg ([2]; po, 4 h): ≥ 30%
C[C@@H](N[C@H]1CC[C@@H](c2ccc(OCc3nn[nH]n3)cc2)C1)c1ccc(F)c2ccccc12 [Example 39, (1S,3R)-N-[(1R)-1-(4-Fluoronaphthalen-1-yl)ethyl]-3-[4-(2H-tetrazol-5-ylmethoxy)phenyl]cyclopentanamine hydrochloride]	0.07	

Further lines, with some results ahead:

Relative activity with respect to Compound A [1]	SMILES	also measured
0.30	C[C@@H](N[C@H]1CC[C@@H](c2cccc(-c3nn[nH]n3)c2)C1)c1cccc2ccccc12 [Example 1, (1S,3R)-N-[(1R)-1-(Naphthalen-1-yl)ethyl]-3-[3-(2H-tetrazol-5-yl)phenyl]cyclopentanamine hydrochloride]	
0.18	C[C@@H](N[C@H]1CC[C@@H](c2ccc(-c3nn[nH]n3)cc2)C1)c1cccc2ccccc12 [Example 3, (1S,3R)-N-[(1R)-1-(Naphthalen-1-yl)ethyl]-3-[4-(2H-tetrazol-5-yl)phenyl]cyclopentanamine hydrochloride]	inhibition in vivo at 10 mg/kg [2, 3]: ≥ 30%
0.33	C[C@@H](NC1CC[C@H](c2ccc(-c3nn[nH]n3)cc2)C1)c1cccc2ccccc12 (stereo partly drawn) [Example 4, (3S)-N-[(1R)-1-(Naphthalen-1-yl)ethyl]-3-[4-(2H-tetrazol-5-yl)phenyl]cyclopentanamine hydrochloride]	
0.52	C[C@@H](N[C@H]1CC[C@@H](c2ccc(C(=O)NCC(=O)O)cc2)C1)c1cccc2ccccc12 [Example 5, N-{4-[(1R,3S)-3-{[(1R)-1-(Naphthalen-1-yl)ethyl]amino}cyclopentyl]benzoylglycine hydrochloride]	
0.26	C[C@@H](N[C@H]1CC[C@@H](c2cccc(CC(=O)O)c2)C1)c1cccc2ccccc12 [Example 7, {3-[(1R,3S)-3-{[(1R)-1-(Naphthalen-1-yl)ethyl]amino}cyclopentyl]phenyl}acetic acid hydrochloride]	inhibition in vivo at 10 mg/kg [2, 3]: ≥ 30%
0.61	C[C@@H](N[C@H]1CC[C@@H](c2ccc(CC(=O)O)cc2)C1)c1cccc2ccccc12 [Example 8, {4-[(1R,3S)-3-{[(1R)-1-(Naphthalen-1-yl)ethyl]amino}cyclopentyl]phenyl}acetic acid hydrochloride]	inhibition in vivo at 10 mg/kg [2, 3]: ≥ 30%
0.28	C[C@@H](N[C@H]1CC[C@@H](c2ccc(OCC(=O)O)cc2)C1)c1cccc2ccccc12 [Example 10, {4-[(1R,3S)-3-{[(1R)-1-(Naphthalen-1-yl)ethyl]amino}cyclopentyl]phenoxy}acetic acid hydrochloride]	inhibition in vivo at 10 mg/kg [2, 3]: ≥ 30%
0.36	C[C@@H](N[C@H]1CC[C@@H](c2cccc(OCC(=O)O)c2)C1)c1cccc2ccccc12 [Example 12, {3-[(1R,3S)-3-{[(1R)-1-(Naphthalen-1-yl)ethyl]amino}cyclopentyl]phenoxy}acetic acid hydrochloride]	
0.26	Cc1cc([C@@H]2CC[C@H](N[C@H](C)c3cccc4ccccc34)C2)ccc1OCC(=O)O [Example 32, {2-Methyl-4-[(1R,3S)-3-{[(1R)-1-(naphthalen-1-yl)ethyl]amino}cyclopentyl]phenoxy}acetic acid hydrochloride]	
0.10	C[C@@H](N[C@H]1CC[C@@H](c2ccc(SCC(=O)O)cc2)C1)c1ccc(F)c2ccccc12 [Example 37, ({4-[(1R,3S)-3-{[(1R)-1-(4-Fluoronaphthalen-1-yl)ethyl]amino}cyclopentyl]phenyl}thio)acetic acid hydrochloride]	
0.13	C[C@@H](N[C@H]1CC[C@@H](c2ccc(OCc3nn[nH]n3)cc2)C1)c1cccc2ccccc12 [Example 38, (1S,3R)-N-[(1R)-1-(Naphthalen-1-yl)ethyl]-3-[4-(2H-tetrazol-5-ylmethoxy)phenyl]cyclopentanamine hydrochloride]	
